Data on two molecules can be found in patent publication US20150316565A1, “Methodologies and Reagents for Detecting Fibrinolysis and Hyperfibrinolysis” (Haemonetics Corporation, priority 2014, published 2015).

For assay [1], the system named is fibrinolysis in citrated whole blood. Briefly: Citrated Kaolin (CK) TEG assay, blood spiked with increasing t-PA, LY30. The arrangement: species or system human. The following applies: 15 healthy donors, eight t-PA concentrations, FIG. 9. The procedure: For the Citrated Kaolin group, citrated blood from each of the donors (e.g., whole blood collected into a tube containing sodium citrate (thereby creating a ratio blood to citrate of approximately 9:1) is collected. For eight different tPA concentrations, 0.5 ml of the blood was gently mixed with Kaolin (a coagulation activator) and increasing concentrations of t-PA to induce fibrinolysis. Aliquots were transferred to 37° C. TEG cups, and the samples were analyzed using the TEG 5000 device, and the LY30 calculated for each of the 15 donors at each of the tPA concentrations. The results plotting the LY30 against the t-PA concentration are shown in FIG. 9.

Assay [2] deals with fibrinolysis in citrated blood with FF reagent (GPIIb/IIIa receptor antagonist). Kind of assay: Functional Fibrinogen TEG assay with/without TXA, blood spiked with increasing t-PA, ΔLY30. Further details: species or system human. The following applies: 15 healthy donors, eight t-PA concentrations, FIG. 10. The procedure: The two TEG cups for each of the fifteen donors at the eight different t-PA concentrations were analyzed on a TEG 5000 device.

Assay [3] has as its system fibrinolysis in a blood sample with reduced platelet function. Kind of assay: Functional Fibrinogen (FF) TEG assay with and without tranexamic acid (TXA).

“tPA: tissue plasminogen activator, converts inactive plasminogen to active plasmin; spiked into blood to induce fibrinolysis”: the “Detection threshold [tPA] for CK-LY30” value in assay [1] was in the range of 75 to 100 ng/mL. Moreover, the “Detection threshold [tPA] for ΔLY30” value in assay [2] lay within 25 to 50 ng/mL.
For `NC[C@H]1CC[C@H](C(=O)O)CC1` [TXA, tranexamic acid], the LY30 result in assay [3] (TXA-treated sample of FIG. 6, amplitude at 74 minutes, the sample not treated with TXA had LY30 approximately 50%) was “approximately 0.1%”. Besides, the “TEG tracing of the TXA-treated portion compared with the portion not treated with TXA” value in assay [3] (blood from a patient with fibrinolysis or hyperfibrinolysis, FIGS. 5 and 6, divergence from about 2 minutes) is “higher amplitude, faster growing TEG tracing”.
